Experimental data taken from PMC9928118, “Funneling modulatory peptide design with generative models: Discovery and characterization of disruptors of calcineurin protein-protein interactions” (PLOS Computational Biology, 2023).
Each block holds one sequence with its values, some of them ahead of it.

Tested on: GST-tagged Cn
Assay: PEPperPRINT peptide microarray binding assay with GST-tagged Cn
Method in brief: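 Qualitative binding: peptides printed on a PEPperPRINT microarray were incubated overnight at 4 °C with 1 mg/ml GST-tagged Cn, then detected with Alexa-Fluor 647 anti-GST antibody. Log fluorescence was baseline-corrected, averaged over duplicate spots, Z-normalized and averaged across five repeats.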

[1] = max over the spots listed under Location on chip
[2] = mean over the spots listed under Location on chip
[3] = max over the chip locations listed for the peptide (two spots)
[4] = mean over the chip locations listed for the peptide (two spots)
[5] = GST-tagged Cn, max over the spots named in Location on chip
[6] = GST-tagged Cn, mean over the spots named in Location on chip
[7] = GST-tagged Cn, max over the spots on the chip (two locations)
[8] = GST-tagged Cn, mean over the spots on the chip (two locations)
[9] = GST-tagged Cn, max over the chip spots listed under Location on chip
[10] = GST-tagged Cn, mean over the chip spots listed under Location on chip
[11] = GST-tagged Cn, max over the chip locations
[12] = GST-tagged Cn, mean over the chip locations

Chip Fluorescence (max) [1]: 2.883
Chip Fluorescence (mean) [2]: 1.506
Sequence: PGDDQPGIIVHPCEEP [SeqRBMlowT_1949]

Chip Fluorescence (max) [3]: 13.8972
Chip Fluorescence (mean) [4]: 1.628
Sequence: PGLYDNALGIEQFTLS [SeqRBMlowT_2874]

Chip Fluorescence (max) [5]: 1.445
Chip Fluorescence (mean) [6]: 0.04021
Sequence: PGLYDNALGIESFTLS [SeqRBMlowT_2801]

Chip Fluorescence (max) [7]: 1.201
Chip Fluorescence (mean) [8]: 0.8541
Sequence: PGLYDNALGMESFTLS [SeqRBMlowT_2805]

Sequence: PGLYENALGMESFSIS [SeqCRZ1_Ajellomyces_capsulatus]
Chip Fluorescence (max) [5]: 1.795
Chip Fluorescence (mean) [6]: 0.6954

Chip Fluorescence (max) [9]: 0.9606
Chip Fluorescence (mean) [10]: -0.5019
Sequence: PKEDLPVITIDPASPQ [SeqNHE1_Pan_troglodytes]

Chip Fluorescence (max) [1]: 2.636
Chip Fluorescence (mean) [2]: -0.01431
Sequence: PKMAPPAINIDFAPTN [SeqRBMlowT_1805]

Chip Fluorescence (max) [7]: 1.2058
Chip Fluorescence (mean) [8]: -0.8596
Sequence: PKMAPPCINIDFAPTN [SeqRBMlowT_319]

Chip Fluorescence (max) [3]: 4.334
Chip Fluorescence (mean) [4]: 3.231
Sequence: PLGTQPGIVVHVCELN [SeqRBMlowT_356]

Chip Fluorescence (max) [9]: 0.8908
Chip Fluorescence (mean) [10]: 0.2837
Sequence: PMLVFRALRIHESPLP [Seqshuffled_9670]

Chip Fluorescence (max) [5]: 1.398
Chip Fluorescence (mean) [6]: 0.7603
Sequence: PMMAVPSISSDVSNAP [SeqRBM_5566]

Chip Fluorescence (max) [5]: 1.865
Chip Fluorescence (mean) [6]: 0.2079
Sequence: PNLYENTLGIEQFTLS [SeqRBM_7749]

Chip Fluorescence (max) [11]: -0.5504
Chip Fluorescence (mean) [12]: -1.127
Sequence: PPPGTPTRIGQHMAPS [SeqRBM_7926]

Chip Fluorescence (max) [9]: 0.4517
Chip Fluorescence (mean) [10]: -0.7977
Sequence: PQLYQNVLGIGSFSLS [SeqRBMlowT_4804]

Chip Fluorescence (max) [5]: 1.458
Chip Fluorescence (mean) [6]: -0.38
Sequence: PQMAPPAINIDFAPTN [SeqRBMlowT_2475]

Chip Fluorescence (max) [5]: 1.4183
Chip Fluorescence (mean) [6]: 0.4268
Sequence: PQPSVQSAEFMEFVGH [Seqshuffled_8788]

Chip Fluorescence (max) [3]: 4.106
Chip Fluorescence (mean) [4]: 0.6019
Sequence: PSALIPSLSMDPSMSE [SeqRBM_6067]

Chip Fluorescence (max) [1]: 2.878
Chip Fluorescence (mean) [2]: -0.2496
Sequence: PSDDQPGIIVHPAEED [SeqRBMlowT_1217]

Chip Fluorescence (max) [5]: 1.806
Chip Fluorescence (mean) [6]: 0.4598
Sequence: PSDDQPGIVVHPCEED [SeqRBMlowT_365]

Chip Fluorescence (max) [1]: 3.302
Chip Fluorescence (mean) [2]: 0.8695
Sequence: PSDPQPSIIVHACLED [SeqRBM_9284]

Chip Fluorescence (max) [3]: 4.395
Chip Fluorescence (mean) [4]: 0.1564
Sequence: PSEDQPGIVVHVCEED [SeqRBMlowT_124]

Chip Fluorescence (max) [3]: 3.843
Chip Fluorescence (mean) [4]: 0.9779
Sequence: PSEDQPGIVVHVCEEG [SeqRBMlowT_361]

Chip Fluorescence (max) [7]: 1.272
Chip Fluorescence (mean) [8]: 0.42
Sequence: PSLFPDALGLGQFSLS [SeqCRZ1_Aureobasidium_pullulans]

Chip Fluorescence (max) [1]: 2.963
Chip Fluorescence (mean) [2]: 0.4149
Sequence: PSLYENALGIESFTLS [SeqRBMlowT_6913]

Chip Fluorescence (max) [5]: 1.442
Chip Fluorescence (mean) [6]: 0.7319
Sequence: PSLYENALGMEAFTIS [SeqRBMlowT_4846]

Chip Fluorescence (max) [9]: 0.9672
Chip Fluorescence (mean) [10]: 0.03589
Sequence: PSMAAPAINIDFAPTN [SeqRBMlowT_2463]

Chip Fluorescence (max) [7]: 1.118
Chip Fluorescence (mean) [8]: 0.1884
Sequence: PSMYQPHIIVKVAETE [SeqRBM_4049]

Chip Fluorescence (max) [9]: 0.973
Chip Fluorescence (mean) [10]: 0.3644
Sequence: PSPDQPGIVVHTCEDD [SeqRBMlowT_9795]

Chip Fluorescence (max) [11]: 0.2872
Chip Fluorescence (mean) [12]: -1.296
Sequence: PSSCTPHLYARVHKGQ [SeqRBM_1451]

Sequence: PVHTIHRVSLQDAGKY [SeqCEACAM5_Aedes_aegypti]
Chip Fluorescence (max) [9]: 0.8319
Chip Fluorescence (mean) [10]: -0.7144

Chip Fluorescence (max) [7]: 1.266
Chip Fluorescence (mean) [8]: -0.8575
Sequence: QAIYQDILGIGAFSGS [SeqRBM_285]

Chip Fluorescence (max) [9]: 0.8318
Chip Fluorescence (mean) [10]: -0.05808
Sequence: QASKNSNMQRSFHVNA [Seqshuffled_9426]

Chip Fluorescence (max) [7]: 1.273
Chip Fluorescence (mean) [8]: 0.6916
Sequence: QAVMCTAMSWCDCGQR [SeqRBM_6860]

Chip Fluorescence (max) [3]: 6.254
Chip Fluorescence (mean) [4]: 1.438
Sequence: QELFISNITVDHSGSY [SeqCEACAM5_Aotus_nancymaae]

Chip Fluorescence (max) [7]: 0.9897
Chip Fluorescence (mean) [8]: 0.1872
Sequence: QFKKSNLLGFMAASGD [Seqshuffled_9600]

Chip Fluorescence (max) [11]: -0.4093
Chip Fluorescence (mean) [12]: -1.098
Sequence: QGIYQDLGGINNFSIS [SeqCRZ1_Pseudogymnoascus_sp]

Chip Fluorescence (max) [9]: 0.8552
Chip Fluorescence (mean) [10]: 0.1691
Sequence: QGLYENVLGMEAFSVS [SeqRBM_7629]

Chip Fluorescence (max) [11]: -0.3081
Chip Fluorescence (mean) [12]: -1.163
Sequence: QGYKNPSAQFEPIGTK [SeqRBM_6874]

Sequence: QHMSVPKIQVTPTEIE [SeqRBM_9954]
Chip Fluorescence (max) [3]: 4.025
Chip Fluorescence (mean) [4]: 2.718

Chip Fluorescence (max) [7]: 1.242
Chip Fluorescence (mean) [8]: -0.2303
Sequence: QKRYGETFPPVKTGSD [Seqshuffled_1489]

Chip Fluorescence (max) [7]: 1.085
Chip Fluorescence (mean) [8]: -0.04024
Sequence: QLLAVPALSVDRKGPK [SeqCACUL1_Dipodomys_ordii]

Chip Fluorescence (max) [9]: 0.7348
Chip Fluorescence (mean) [10]: -0.3913
Sequence: QLRDIFQGRMITILTP [Seqshuffled_3466]

Chip Fluorescence (max) [5]: 1.708
Chip Fluorescence (mean) [6]: -0.008148
Sequence: QPPQNPVATVSTAHHQ [SeqRBM_6519]

Chip Fluorescence (max) [3]: 3.709
Chip Fluorescence (mean) [4]: 0.2678
Sequence: QRFFCVRYDVNPCINW [Seqrandom_9944]

Chip Fluorescence (max) [3]: 7.93
Chip Fluorescence (mean) [4]: 2.436
Sequence: QSNSTPTITITPPSDA [SeqRBM_9156]

Chip Fluorescence (max) [3]: 10.3742
Chip Fluorescence (mean) [4]: 0.3512
Sequence: QSQSNPEITVTPPETE [SeqRIPOR2_Austrofundulus_limnaeus]

Chip Fluorescence (max) [11]: -0.7515
Chip Fluorescence (mean) [12]: -1.165
Sequence: QSRSCSHPNRSPERVT [SeqRBM_5791]

Chip Fluorescence (max) [9]: 0.5479
Chip Fluorescence (mean) [10]: -0.783
Sequence: QTEDQPGIIVHTAMLP [SeqRCN1_Bactrocera_dorsalis]

Chip Fluorescence (max) [7]: 1.036
Chip Fluorescence (mean) [8]: -0.9088
Sequence: QTSCLPFPVVNSQEGQ [SeqRBM_2540]

Chip Fluorescence (max) [9]: 0.8878
Chip Fluorescence (mean) [10]: -0.5817
Sequence: QYAYNSQMMGITTQLQ [Seqshuffled_9335]

Chip Fluorescence (max) [7]: 1.034
Chip Fluorescence (mean) [8]: 0.3693
Sequence: RAMRILKCCPHPAAWN [Seqrandom_9981]

Sequence: RAYINPFMMFRSGGNK [SeqSFB3_Cordyceps_militaris]
Chip Fluorescence (max) [9]: 0.6899
Chip Fluorescence (mean) [10]: -0.6148

Chip Fluorescence (max) [9]: 0.6841
Chip Fluorescence (mean) [10]: -0.1666
Sequence: RAYINPFMQFIDGGRF [SeqRBMlowT_3663]

Chip Fluorescence (max) [3]: 3.668
Chip Fluorescence (mean) [4]: 2.003
Sequence: RAYINPFMQFIDGGRK [SeqRBMlowT_4070]

Chip Fluorescence (max) [5]: 1.802
Chip Fluorescence (mean) [6]: -0.3387
Sequence: RAYINPFMQFIDGGRR [SeqRBMlowT_1520]

Chip Fluorescence (max) [7]: 1.138
Chip Fluorescence (mean) [8]: 0.2992
Sequence: RAYINPFMQFNDGGSR [SeqRBM_9542]

Sequence: RAYINPFMQFQDGGQR [SeqRBMlowT_1515]
Chip Fluorescence (max) [5]: 1.533
Chip Fluorescence (mean) [6]: -0.1627

Chip Fluorescence (max) [1]: 2.865
Chip Fluorescence (mean) [2]: 0.3097
Sequence: RAYINPFMQFQIGGNH [SeqRBMlowT_4074]

Chip Fluorescence (max) [9]: 0.7684
Chip Fluorescence (mean) [10]: -0.05563
Sequence: RAYINPFMQFTDDGRR [SeqRBMlowT_7881]

Chip Fluorescence (max) [7]: 1.3045
Chip Fluorescence (mean) [8]: 0.5135
Sequence: RAYINPFMQFTDGGRR [SeqRBMlowT_4069]

Chip Fluorescence (max) [3]: 3.708
Chip Fluorescence (mean) [4]: 0.9074
Sequence: RAYINPFMTFIDGGHR [SeqRBMlowT_1519]

Chip Fluorescence (max) [1]: 3.064
Chip Fluorescence (mean) [2]: 0.978
Sequence: RAYINPFMTFTDGGRR [SeqRBMlowT_3400]

Chip Fluorescence (max) [9]: 0.9031
Chip Fluorescence (mean) [10]: 0.1441
Sequence: RAYINPHMFFKFDGHK [SeqRBM_1639]

Chip Fluorescence (max) [5]: 1.378
Chip Fluorescence (mean) [6]: 0.8819
Sequence: RAYMNPFMTFIDGGHR [SeqRBMlowT_1518]

Chip Fluorescence (max) [3]: 3.463
Chip Fluorescence (mean) [4]: 0.1448
Sequence: RCISAYKLDSVMMDPS [Seqrandom_9957]

Chip Fluorescence (max) [5]: 1.816
Chip Fluorescence (mean) [6]: 0.8874
Sequence: REPGVPPLELKGHLSL [SeqRBM_7171]

Chip Fluorescence (max) [5]: 1.764
Chip Fluorescence (mean) [6]: -0.3424
Sequence: REYINPKMHFHFLNTV [SeqRBM_9087]

Chip Fluorescence (max) [9]: 0.42
Chip Fluorescence (mean) [10]: -0.6398
Sequence: RFRTELSFGFTGFGTD [Seqshuffled_9528]

Chip Fluorescence (max) [3]: 4.744
Chip Fluorescence (mean) [4]: 1.033
Sequence: RKDSAVTQWGFSNLWA [Seqrandom_9950]

Chip Fluorescence (max) [3]: 4.044
Chip Fluorescence (mean) [4]: 1.1677
Sequence: RLFSVCEQEEEIERAP [Seqshuffled_9643]

Chip Fluorescence (max) [3]: 6.671
Chip Fluorescence (mean) [4]: 1.748
Sequence: RMMEPQNRGFKGCTES [Seqshuffled_509]

Chip Fluorescence (max) [7]: 1.316
Chip Fluorescence (mean) [8]: -0.7354
Sequence: RNPERPKLHLQGHLVA [SeqRBM_9016]

Chip Fluorescence (max) [1]: 3.012
Chip Fluorescence (mean) [2]: 0.475
Sequence: RNPESPSLFLEGHLSR [SeqRBMlowT_8778]

Chip Fluorescence (max) [7]: 1.2142
Chip Fluorescence (mean) [8]: 0.3008
Sequence: RNPGIALLSLRGHKAQ [SeqRBMlowT_8792]

Chip Fluorescence (max) [7]: 1.17
Chip Fluorescence (mean) [8]: -0.1022
Sequence: RNPGQALLELKGHSAQ [SeqRBMlowT_7734]

Chip Fluorescence (max) [9]: 0.4069
Chip Fluorescence (mean) [10]: -0.3301
Sequence: RNPGQALLELRGHSAS [SeqRBMlowT_6125]

Chip Fluorescence (max) [11]: 0.09132
Chip Fluorescence (mean) [12]: -0.8885
Sequence: RNPGQALLQLSGHKAP [SeqRBM_8761]
